# Data from US12559495B2 (Agency for Science, Technology and Research, priority 2013, dated 2026).
# System: p-LRP6 (Ser1490)
# Experiment: Phospho-LRP6 assay, time course, PA-1 teratocarcinoma cells
# Assay type: cell-based
# Settings: 2 μM, from 4 h onwards, in vitro (FIG. 3)
# Method: FIGS. 3A-3B show the time-course of p-LRP6 (Ser 1490) inhibition (in vitro) induced by porcupine inhibitors. FIG. 3A is a Western blot analysis of PA-1 teratocarcinoma cells treated with 2 μM of Compound 5, for the time points indicated with antibodies as indicated on the left. As a control, cells treated with either growth medium alone or the vehicle (DMSO) for 48 h were included. FIG. 3B is a densitometric analysis of pLRP6 relative to total LRP6.
# The present target efficacy biomarker assay measures a decrease in levels of p-LRP6 (i.e. phosphorylated LRP-6) (Ser1490) upon treatment with a porcupine inhibitor (Compound 5). […] The inhibitory effect remains up to 72 h (data not shown) in the presence of the compound and up to 12 h after the compound has been removed (data not shown).
row,SMILES,reduction in p-LRP6
1,"Cn1c(=O)c2c(ncn2CC(=O)Nc2ccc(-c3ccccc3)nn2)n(C)c1=O [Compound 5, 2-(1,3-dimethyl-2,6-dioxo-1,2,3,6-tetrahydro-7H-purin-7-yl)-N-(6-phenylpyridazin-3-yl)acetamide]",greater than 50%

# Same assay, conditions: data not shown
SMILES,duration of inhibitory effect after the compound has been removed,duration of inhibitory effect in the presence of the compound
"Cn1c(=O)c2c(ncn2CC(=O)Nc2ccc(-c3ccccc3)nn2)n(C)c1=O [Compound 5, 2-(1,3-dimethyl-2,6-dioxo-1,2,3,6-tetrahydro-7H-purin-7-yl)-N-(6-phenylpyridazin-3-yl)acetamide]",up to 12 h,up to 72 h

# System: HEK293-STF3A cells
# Experiment: STF3A assay (luciferase reporter)
# Assay type: cell-based
# Settings: Homo sapiens, 24 h, 1 day of treatment
# Method in brief: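 HEK293 cells stably carrying the STF luciferase reporter and expressing Wnt3A, seeded at 2×10^4 cells/well and grown overnight. Serially diluted compound (final 50 μM to 1.5 nM) applied for 1 day at 37 °C. Steady-Glo luciferase luminescence read after 10 min at room temperature.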
row,SMILES,IC50 [nM]
1,"Cn1c(=O)c2c(ncn2CC(=O)Nc2ccc(-c3ccccc3)nn2)n(C)c1=O [Compound 5, 2-(1,3-dimethyl-2,6-dioxo-1,2,3,6-tetrahydro-7H-purin-7-yl)-N-(6-phenylpyridazin-3-yl)acetamide]",< 100
2,"Cn1c(=O)c2c(nc(C3CC3)n2CC(=O)Nc2ccc(-c3ccsc3)cc2)n(C)c1=O [Compound 68, 2-(8-cyclopropyl-1,3-dimethyl-2,6-dioxo-2,3-dihydro-1H-purin-7(6H)-yl)-N-(4-(thiophen-3-yl)phenyl)acetamide]",< 100
3,"Cn1c(=O)c2c(nc(-c3ccccc3)n2CC(=O)Nc2ccc(-c3ccsc3)cc2)n(C)c1=O [Compound 69, 2-(1,3-dimethyl-2,6-dioxo-8-phenyl-2,3-dihydro-1H-purin-7(6H)-yl)-N-(4-(thiophen-3-yl)phenyl)acetamide]",< 100
4,"Cn1c(=O)c2c(nc(C(F)(F)F)n2CC(=O)Nc2ccc(-c3ccsc3)cc2)n(C)c1=O [Compound 70, 2-(1,3-dimethyl-2,6-dioxo-8-(trifluoromethyl)-2,3-dihydro-1H-purin-7(6H)-yl)-N-(4-(thiophen-3-yl)phenyl)acetamide]",< 100
5,"O=C(Cn1cnc2[nH]c(=O)[nH]c(=O)c21)Nc1ccc(-c2ccsc2)cc1 [Compound 71, 2-(2,6-dioxo-2,3-dihydro-1H-purin-7(6H)-yl)-N-(4-(thiophen-3-yl)phenyl) acetamide]",> 10000
6,"CCn1c(=O)c2c(ncn2CC(=O)Nc2ccc(-c3ccsc3)cc2)n(CC)c1=O [Compound 72, 2-(1,3-diethyl-2,6-dioxo-2,3-dihydro-1H-purin-7(6H)-yl)-N-(4-(thiophen-3-yl)phenyl)acetamide]",< 100
7,"CN(C)c1nc2c(c(=O)n(C)c(=O)n2C)n1CC(=O)Nc1ccc(-c2ccsc2)cc1 [Compound 73, 2-(8-(dimethylamino)-1,3-dimethyl-2,6-dioxo-2,3-dihydro-1H-purin-7(6H)-yl)-N-(4-(thiophen-3-yl)phenyl)acetamide]",< 100
8,"Cn1c(=O)c2c(nc(N3CCOCC3)n2CC(=O)Nc2ccc(-c3ccsc3)cc2)n(C)c1=O [Compound 74, 2-(1,3-dimethyl-8-morpholino-2,6-dioxo-2,3-dihydro-1H-purin-7(6H)-yl)-N-(4-(thiophen-3-yl)phenyl)acetamide]",< 1000
9,"Cn1c(=O)c2c(nc(-c3cccs3)n2CC(=O)Nc2ccc(-c3ccsc3)cc2)n(C)c1=O [Compound 75, 2-(1,3-dimethyl-2,6-dioxo-8-(thiophen-2-yl)-2,3-dihydro-1H-purin-7(6H)-yl)-N-(4-(thiophen-3-yl)phenyl)acetamide]",< 1000
10,"Cn1c(=O)c2c(nc(Br)n2CC(=O)Nc2ccc(-c3ccsc3)cc2)n(C)c1=O [Compound 76, 2-(8-bromo-1,3-dimethyl-2,6-dioxo-2,3-dihydro-1H-purin-7(6H)-yl)-N-(4-(thiophen-3-yl)phenyl)acetamide]",< 100
11,"CC(C(=O)Nc1ccc(-c2ccccc2)nn1)n1cnc2c1c(=O)n(C)c(=O)n2C (stereo not drawn) [Compound 77, 2-(1,3-dimethyl-2,6-dioxo-2,3-dihydro-1H-purin-7(6H)-yl)-N-(6-phenylpyridazin-3-yl)propanamide]",< 100
12,"CC(C(=O)Nc1ccc(-c2ccc(F)cc2)nn1)n1cnc2c1c(=O)n(C)c(=O)n2C (stereo not drawn) [Compound 78, 2-(1,3-dimethyl-2,6-dioxo-2,3-dihydro-1H-purin-7(6H)-yl)-N-(6-(4-fluorophenyl)pyridazin-3-yl)propanamide]",< 1000
13,"C[C@@H](C(=O)Nc1ccc(-c2ccccc2)nn1)n1cnc2c1c(=O)n(C)c(=O)n2C [Compound 79, (S)-2-(1,3-dimethyl-2,6-dioxo-2,3-dihydro-1H-purin-7(6H)-yl)-N-(6-phenylpyridazin-3-yl)propanamide]",< 100
14,"C[C@H](C(=O)Nc1ccc(-c2ccccc2)nn1)n1cnc2c1c(=O)n(C)c(=O)n2C [Compound 80, (R)-2-(1,3-dimethyl-2,6-dioxo-2,3-dihydro-1H-purin-7(6H)-yl)-N-(6-phenylpyridazin-3-yl)propanamide]",> 10000
15,"CC(C(=O)Nc1ccc(-c2nccs2)cc1)n1cnc2c1c(=O)n(C)c(=O)n2C (stereo not drawn) [Compound 81, 2-(1,3-dimethyl-2,6-dioxo-2,3-dihydro-1H-purin-7(6H)-yl)-N-(4-(thiazol-2-yl)phenyl)propanamide]",< 100
16,"C[C@H](C(=O)Nc1ccc(-c2nccs2)cn1)n1cnc2c1c(=O)n(C)c(=O)n2C [Compound 83, (R)-2-(1,3-dimethyl-2,6-dioxo-1,2,3,6-tetrahydro-7H-purin-7-yl)-N-(5-(thiazol-2-yl)pyridin-2-yl)propanamide]",< 10000
17,"C[C@@H](C(=O)Nc1ccc(-c2nccs2)cn1)n1cnc2c1c(=O)n(C)c(=O)n2C [Compound 84, (S)-2-(1,3-dimethyl-2,6-dioxo-1,2,3,6-tetrahydro-7H-purin-7-yl)-N-(5-(thiazol-2-yl)pyridin-2-yl)propanamide]",< 100
18,"Cc1nc(-c2ccc(NC(=O)[C@@H](C)n3cnc4c3c(=O)n(C)c(=O)n4C)nc2)cs1 [Compound 85, (R)-2-(1,3-dimethyl-2,6-dioxo-2,3-dihydro-1H-purin-7(6H)-yl)-N-(5-(2-methylthiazol-4-yl)pyridin-2-yl)propanamide]",< 5000
19,"Cc1nc(-c2ccc(NC(=O)[C@H](C)n3cnc4c3c(=O)n(C)c(=O)n4C)nc2)cs1 [Compound 86, (S)-2-(1,3-dimethyl-2,6-dioxo-2,3-dihydro-1H-purin-7(6H)-yl)-N-(5-(2-methylthiazol-4-yl)pyridin-2-yl)propanamide]",< 100
20,"Cn1c(=O)c2c(ncn2CCC(=O)Nc2ccc(-c3ccsc3)cc2)n(C)c1=O [Compound 87, 3-(1,3-dimethyl-2,6-dioxo-1,2,3,6-tetrahydro-7H-purin-7-yl)-N-(4-(thiophen-3-yl)phenyl)propanamide]",< 100
21,"Cn1c(=O)c2c(ncn2CCCC(=O)Nc2ccc(-c3ccsc3)cc2)n(C)c1=O [Compound 88, 4-(1,3-dimethyl-2,6-dioxo-1,2,3,6-tetrahydro-7H-purin-7-yl)-N-(4-(thiophen-3-yl)phenyl)butanamide]",< 100
22,"Cn1c(=O)c2c(ncn2CC(=O)Nc2ccc(-c3cccs3)cc2)n(C)c1=O [Compound 89, 2-(1,3-dimethyl-2,6-dioxo-1,2,3,6-tetrahydro-7H-purin-7-yl)-N-(4-(thiophen-2-yl)phenyl)acetamide]",< 100
23,"Cn1c(=O)c2c(ncn2CCC(=O)Nc2ccc(-c3cccs3)cc2)n(C)c1=O [Compound 90, 3-(1,3-dimethyl-2,6-dioxo-1,2,3,6-tetrahydro-7H-purin-7-yl)-N-(4-(thiophen-2-yl)phenyl)propanamide]",< 100
24,"Cn1c(=O)c2c(ncn2CCCC(=O)Nc2ccc(-c3cccs3)cc2)n(C)c1=O [Compound 91, 4-(1,3-dimethyl-2,6-dioxo-1,2,3,6-tetrahydro-7H-purin-7-yl)-N-(4-(thiophen-2-yl)phenyl)butanamide]",< 100
25,"Cc1nc(-c2ccc(NC(=O)CCn3cnc4c3c(=O)n(C)c(=O)n4C)cc2)cs1 [Compound 92, 3-(1,3-dimethyl-2,6-dioxo-1,2,3,6-tetrahydro-7H-purin-7-yl)-N-(4-(2-methylthiazol-4-yl)phenyl)propanamide]",< 1000
26,"Cn1c(=O)c2c(ncn2CCC(=O)Nc2ccc(-c3nccs3)cc2)n(C)c1=O [Compound 93, 3-(1,3-dimethyl-2,6-dioxo-1,2,3,6-tetrahydro-7H-purin-7-yl)-N-(4-(thiazol-2-yl)phenyl)propanamide]",< 1000
27,"Cn1c(=O)c2c(ncn2CCCC(=O)Nc2ccc(-c3nccs3)cc2)n(C)c1=O [Compound 94, 4-(1,3-dimethyl-2,6-dioxo-1,2,3,6-tetrahydro-7H-purin-7-yl)-N-(4-(thiazol-2-yl)phenyl)butanamide]",< 1000

# System: p-LRP6 (Ser1490)
# Experiment: Phospho-LRP6 assay, dose titration, HPAF-II pancreatic adenocarcinoma cells
# Assay type: cell-based
# Settings: Homo sapiens, HPAF-II; 3.3 nM, 6 h (FIG. 4)
# Method: FIGS. 4A-4B show pLRP6 in vitro inhibition-dose titration. FIG. 4A is a Western blot analysis of HPAF-II pancreatic adenocarcinoma cells treated with the indicated doses of Compound 5 for 6 h with antibodies as indicated on the left. The […] controls are a cell lysate of untreated STF3A cells and cells treated with vehicle only (DMSO). FIG. 4B is a densitometric analysis of pLRP6 relative to total LRP6.
# While 2 μM led to 50-60% inhibition after 6 h of in vitro treatment, 3.3 nM of Compound 5 still inhibited p-LRP6 (Ser1490) by about 20% in this assay (FIG. 4).
row,SMILES,inhibition at 0.0033 µM [%]
1,"Cn1c(=O)c2c(ncn2CC(=O)Nc2ccc(-c3ccccc3)nn2)n(C)c1=O [Compound 5, 2-(1,3-dimethyl-2,6-dioxo-1,2,3,6-tetrahydro-7H-purin-7-yl)-N-(6-phenylpyridazin-3-yl)acetamide]",~20

# Same assay, conditions: Homo sapiens, HPAF-II; 2 μM, after 6 h of in vitro treatment (FIG. 4)
row,SMILES,inhibition at 2 µM [%]
1,"Cn1c(=O)c2c(ncn2CC(=O)Nc2ccc(-c3ccccc3)nn2)n(C)c1=O [Compound 5, 2-(1,3-dimethyl-2,6-dioxo-1,2,3,6-tetrahydro-7H-purin-7-yl)-N-(6-phenylpyridazin-3-yl)acetamide]",50 to 60

# Same assay, conditions: concentrations lower than 3.3 nM, HPAF-II cells (data not shown)
row,SMILES,inhibition of p-LRP6
1,"Cn1c(=O)c2c(ncn2CC(=O)Nc2ccc(-c3ccccc3)nn2)n(C)c1=O [Compound 5, 2-(1,3-dimethyl-2,6-dioxo-1,2,3,6-tetrahydro-7H-purin-7-yl)-N-(6-phenylpyridazin-3-yl)acetamide]",did not inhibit
